Measured values as given in patent publication US11235066B2, “Micelles and methods” (THE REGENTS OF THE UNIVERSITY OF MICHIGAN, priority 2015, dated 2022).

Legend:
[1] = mouse, in vivo
Protocol: All tissues (heart, spleen, kidney, liver, and colon) were fixed in phosphate-buffered formalin for 24 h, paraffin-embedded, and cut in 10 μm sections. Routine histology (H&E) was performed. Renal toxicity was assessed after completion of therapy. Histology (H&E) from representative murine kidney sections (n=4) from the different treatment groups were evaluated for tubules with vacuoles on five random fields (400× magnification) for each specimen.

[2] = Body weight and physical signs during therapy; assay type: in vivo, CPC; Apc mice; conditions: vs no treatment (NSS) and plain rapamycin micelles
Protocol: The number of mice (number of adenomas) at the end of the study were n=5 (20), 6 (24), 5 (22), and 7 (21), respectively. Two mice (one in NSS group and one in unlabeled (plain) rapamycin micelle group) died from unexplained cause. […] Mice underwent endoscopy every ˜4 days to monitor adenoma regression and were weighed every 2 days for 5 weeks. A total of n=230 colonoscopy examinations was performed.
A linear mixed effects regression models was used to assess efficacy and toxicity. An interaction between treatment groups and time (days) was estimated in the model to compare adenoma regression rates among the different rapamycin formulations. The model has two random effects to incorporate a correlation between data measured on the same adenoma and a correlation between adenomas found within the same animal. For weights, only one random effect was used to model the correlation between data from the same animal. A comparison was considered significant if P<0.01 to adjust for multiple comparisons. All analyses were performed using SAS ver 9.3. Unless stated otherwise, all data were tested for normality. A one-way ANOVA or non-parametric Kruskal-Wallis was used to determined statistical significance for comparisons among more than 2 groups. If there was at least one difference between treatment groups, multiple comparisons were used to search for pairwise differences. […]

colonic adenomas = experiment: In vivo fluorescence endoscopy of Cy5.5-labeled peptides binding to colonic adenomas; parameters: species or system CPC; Apc mouse; conditions: Cy5.5-labeled peptide, 200 μM via tail vein, 1 hour circulation
Text: Our laboratory has previously identified a group of peptides that bind specifically to colonic adenomas in the CPC; Apc mouse. Peptides […] (SEQ ID NO: 3), KCCFPAQ (SEQ ID NO: 9), LTTHYKL (SEQ ID NO: 18), and AKPGYLS (SEQ ID NO: 17) were identified using phage display technology. Peptides YTTTNAS (SEQ ID NO: 64) and DNEPIAQ (SEQ ID NO: 65) were included as controls. These peptides were identified based on an unbiased screen of cells and tissues to maximize specific binding in vivo. The peptides were labeled with Cy5.5 and injected via tail vein at a concentration of 200 μM in 1×PBS. The peptides were allowed to circulate for 1 hour to allow for non-specific binding to clear. The colon was rinsed again with tap water. Fluorescence images were then collected. […] Fluorescence images for each adenoma were analyzed by defining a region of interest (ROI) around the adenoma and adjacent normal-appearing mucosa using ImageJ software. The mean values were calculated for each ROI, and the T/B ratio was determined. The mean T/B ratio for each peptide was calculated, and Kruskal-Wallis and Dunn's multiple comparison tests were used to determine statistical differences. […]
We performed in vivo imaging of colon in CPC; Apc mice to select the peptide to label the micelles. […] Adenomas with diameter of >1.5 mm were identified, and the location from the anus was recorded. […]

Compound	renal toxicity: number of vacuolated tubules per high-power field [1]	body weight [2]	target-to-background (T/B) ratio, in vivo fluorescence (colonic adenomas)	target-to-background (T/B) ratio, in vivo fluorescence (colonic adenomas; listed as LTTHYKL)
CO[C@H]1C[C@@H]2CC[C@@H](C)[C@@](O)(O2)C(=O)C(=O)N2CCCC[C@H]2C(=O)O[C@H]([C@H](C)C[C@@H]2CC[C@@H](O)[C@H](OC)C2)CC(=O)[C@H](C)/C=C(\C)[C@@H](O)[C@@H](OC)C(=O)[C@H](C)C[C@H](C)/C=C/C=C/C=C/1C [free rapamycin, Rapamycin]	significantly greater number of vacuoles	gained more weight		
LTTHYKL (SEQ ID NO: 18) [LTT*]			strongest binding	highest mean value
